In patent US20230147993A1, “THIOPHENE COMPOUNDS WITH CYCLIC AMIDES, AND USES THEREOF” (Capulus Therapeutics, LLC, priority 2019, published 2023):
Like-named read-outs stand apart in the source and are kept apart here.

Assays:
SREBP = assay: Reporter Screening Assay (SRE-luciferase reporter, HepG2); type: cell-based; details: SREBPv1 Reporter cell line HepG2, 24 hours, 0.01 uM to 10 uM, read-out: I: Reporter Screening Assay (Ave EC50 (nM))
Description: Reporter Screening Assay: This assay was used to evaluate the effect on transcriptional activity SREBP of selected compounds using an SRE-luciferase reporter construct. On day 1, 10,000 cells were seeded in a 96 well (white) plate as per the plate map in Growth media without antibiotics. Cells were incubated at 37° C. for 8 hours. After 8 hours, cells were washed with DPBS for complete removal of FBS. DPBS was completely removed and Growth media was replaced with phenol free treatment medium (90 μl) with different FBS concentrations. The cells were then incubated at 37° C. for 24 hours with varying doses (0.01 uM to 10 uM) of compounds. Then a Luciferase assay was performed.
Reagents for performing Luciferase assay were stored at −20° C. To a tube of lyophilized assay substrate was added 1 mL Substrate Solvent and mixed well. The Substrate tube after reconstitution was covered with aluminum foil so as to keep it protected from light. The assay buffer was thawed to room temperature. To 20 mL Assay Buffer was added 200 µL of reconstituted 100× Substrate and mixed well. The reconstituted substrate as well as the assay solution (buffer + substrate) was protected from light throughout the procedure by keeping it covered with aluminum foil. Using a multi-channel pipette, 100 μL Assay Solution (buffer + substrate) was added directly to each sample well in Plate 1, which was incubated for 30 min (plate was covered with aluminum foil). After 30 min incubation, the plate was read for total luminescence. Each well was read for 2 seconds in a plate luminometer. (Microplate reader Envision Microplate reader from Perkin Elmer). Precaution was taken to incubate plate exactly for 30 min prior to reading on the plate reader.
Reporter Assay Materials: SREBPv1 Reporter cell line: HepG2-#32251. Growth Medium: MEM (Corning 10-010), 10% FBS, 1% GlutaMax (Invitrogen Catalog #35050061), […] (Invitrogen Catalog #A1113803) and 1% Penicillin-Streptomycin (Pen-Strep). Treatment Media: Phenol-free MEM (Invitrogen Catalog #51200-038) and 1% GlutaMax (Invitrogen Catalog #35050061). Luciferase Assay: LightSwitch Luciferase Assay Kit (Catalog #32032). LDH assay: Pierce LDH Cytotoxicity Assay Kit (Catalog #SD249616).

[1] = Stability in mouse liver microsomes; type: in vitro ADME
Description: (§1) Half-life Human Microsomes: Compounds were evaluated for stability in human liver microsomes. A 10 mM stock solution of the compound being evaluated was prepared in DMSO and diluted with water:acetonitrile (1:1) to a concentration of 1 mM. A working concentration of 100 μM was prepared by further dilution with water:acetonitrile (1:1). To make the preincubation mixture, 2.5 μL of the diluted compound was combined with 75 μL of human liver microsomes at 3.33 mg/mL, and 85 μL of 100 mM potassium phosphate buffer, and this mixture was pre-incubated for 10 min at 37° C. To make the 60 minute mixture without cofactor, 32.5 μL of the preincubation mixture was combined with 17.5 μL of 100 mM potassium phosphate buffer and incubated for 60 min at 37° C. To make the 0 min sample with cofactor (NADPH), 16.25 μL of the preincubation mixture was combined with 200 μL of acetonitrile containing internal standard and 8.75 μL of cofactor (NADPH). To make the incubation mixture, 62 μL of cofactor (2.85 mM) was combined with the remaining incubation mixture, and incubated for 60 min at 37° C. To prepare the sample mixture to be evaluated, 25 μL incubation mixture was combined with 200 μL of acetonitrile containing internal standard and vortexed for 5 min at 1200 rpm, then centrifuged for 10 min at 4000 rpm. The supernatant was diluted 2 fold with water and injected on LC-MS/MS. The sample mixture was evaluated by LC-MS/MS using 10 mM ammonium acetate with 0.1% FA as the aqueous mobile phase, and methanol as the organic mobile phase.
Half-life Mouse Microsomes: Compounds were evaluated in mouse liver microsomes following a similar procedure as described above for human liver microsomes. A similar procedure could be used to evaluate compounds in rat liver microsomes.

ACACA = assay: Gene expression in HepG2 cells (qPCR), ACACA; type: cell-based; details: for 48 hours, normalized to β-Actin, relative to mock or vehicle treated cells (ΔΔCT)
Description: Gene Expression: The effect of selected compounds on the gene expression of HepG2 cells was evaluated. HepG2 cells (P2) were seeded in 24 well plate (80,000 cells/well) for RNA extraction and in a 96 well plate (10,000 cells/well) for Cell Titer Glow (CTG). The media used was DMEM and contained 10% FBS. Each compound was evaluated at […] for 48 hours. Two biological replicates per experimental group were evaluated for RNA. For gene analysis, RNA was harvested with RNEasy kit and 20-100 ng used to synthesize cDNA with random primers. Quantitative PCR was performed on 1 pg to 100 ng cDNA for the following genes: ACACA, ACLY, FASN, LSS, PNPLA3. Gene expression levels were normalized with housekeeping gene, β-Actin, and relative expression levels determined using ΔΔCT method comparing treated to mock or vehicle treated cells as a baseline. “Total” gene expression refers to the average of the values of the 5 genes listed above.

[2] = Stability in human liver microsomes; type: in vitro ADME; details: 60 min at 37° C., NADPH
Description: as §1

## O=C(c1ccc(-c2cc(-c3ccnc4c3OCC(CO)O4)cs2)c(Cl)c1)N1CCC(O)CC1 (racemic) [Compound I-1629181, (3-chloro-4-(4-(3-(hydroxymethyl)-2,3-dihydro-[1,4]dioxino[2,3-b]pyridin-8-yl)thiophen-2-yl)phenyl)(4-hydroxypiperidin-1-yl)methanone]
SREBP; Homo sapiens
  EC50: < 249 nM

## O=C(c1ccc(-c2cc(-c3ccnc(C4CCOCC4)c3)cs2)c(Cl)c1)N1CCC(O)CC1 [Compound I-1628752, (3-chloro-4-(4-(2-(tetrahydro-2H-pyran-4-yl)pyridin-4-yl)thiophen-2-yl)phenyl)(4-hydroxypiperidin-1-yl)methanone]
[1]
  percent remaining after 60 min in mouse liver microsomes: +++ (≥60.1 = +++)
SREBP; Homo sapiens
  EC50: > 500 nM
ACACA
  A: ACACA, effect of compounds on gene expression of HepG2 cells: + (>0.751 = +)
[2]
  percent remaining after 60 min in human liver microsomes: + (0-30 = +)

## O=C(c1ccc(-c2cc(-c3ccnc(C4CCOC4)c3)cs2)c(Cl)c1)N1CCC(O)CC1 (centres unmarked) [Compound I-1628763, (3-chloro-4-(4-(2-(tetrahydrofuran-3-yl)pyridin-4-yl)thiophen-2-yl)phenyl)(4-hydroxypiperidin-1-yl)methanone]
[1]
  percent remaining after 60 min in mouse liver microsomes: +++ (≥60.1 = +++)
SREBP; Homo sapiens
  EC50: < 249 nM
ACACA
  A: ACACA, effect of compounds on gene expression of HepG2 cells: ++ (0.31-0.7509 = ++)
[2]
  percent remaining after 60 min in human liver microsomes: + (0-30 = +)

## O=C(c1ccc(-c2cc(-c3ccnc(C4CCCO4)c3)cs2)c(Cl)c1)N1CCC(O)CC1 (centres unmarked) [Compound I-1628777, (3-chloro-4-(4-(2-(tetrahydrofuran-2-yl)pyridin-4-yl)thiophen-2-yl)phenyl)(4-hydroxypiperidin-1-yl)methanone]
[1]
  percent remaining after 60 min in mouse liver microsomes: +++ (≥60.1 = +++)
SREBP; Homo sapiens
  EC50: 250 to 500 nM
ACACA
  A: ACACA, effect of compounds on gene expression of HepG2 cells: ++ (0.31-0.7509 = ++)
[2]
  percent remaining after 60 min in human liver microsomes: + (0-30 = +)

## O=C(c1ccc(-c2cc(-c3ccnc(C4(CO)CC4)c3)cs2)c(Cl)c1)N1CCC(O)CC1 [Compound I-1628961, (3-chloro-4-(4-(2-(1-(hydroxymethyl)cyclopropyl)pyridin-4-yl)thiophen-2-yl)phenyl)(4-hydroxypiperidin-1-yl)methanone]
[1]
  percent remaining after 60 min in mouse liver microsomes: +++ (≥60.1 = +++)
SREBP; Homo sapiens
  EC50: < 249 nM
ACACA
  A: ACACA, effect of compounds on gene expression of HepG2 cells: ++ (0.31-0.7509 = ++)
[2]
  percent remaining after 60 min in human liver microsomes: +++ (≥60.1 = +++)

## O=C(c1ccc(-c2cc(-c3ccnc(C4(CO)CCC4)c3)cs2)c(Cl)c1)N1CCC(O)CC1 [Compound I-1629089, (3-chloro-4-(4-(2-(1-(hydroxymethyl)cyclobutyl)pyridin-4-yl)thiophen-2-yl)phenyl)(4-hydroxypiperidin-1-yl)methanone]
[1]
  percent remaining after 60 min in mouse liver microsomes: +++ (≥60.1 = +++)
SREBP; Homo sapiens
  EC50: > 500 nM
[2]
  percent remaining after 60 min in human liver microsomes: + (0-30 = +)

## O=C(c1ccc(-c2cc(-c3ccnc(OC4COC4)c3)cs2)c(Cl)c1)N1CCC(O)CC1 [Compound I-1629100, (3-chloro-4-(4-(2-(oxetan-3-yloxy)pyridin-4-yl)thiophen-2-yl)phenyl)(4-hydroxypiperidin-1-yl)methanone]
[1]
  percent remaining after 60 min in mouse liver microsomes: +++ (≥60.1 = +++)
SREBP; Homo sapiens
  EC50: > 500 nM
[2]
  percent remaining after 60 min in human liver microsomes: +++ (≥60.1 = +++)

## CC(C)(O)COc1cc(-c2csc(-c3ccc(C(=O)N4CCC(O)CC4)cc3Cl)c2)ccn1 [Compound I-1629101, (3-chloro-4-(4-(2-(2-hydroxy-2-methylpropoxy)pyridin-4-yl)thiophen-2-yl)phenyl)(4-hydroxypiperidin-1-yl)methanone]
[1]
  percent remaining after 60 min in mouse liver microsomes: +++ (≥60.1 = +++)
SREBP; Homo sapiens
  EC50: > 500 nM
[2]
  percent remaining after 60 min in human liver microsomes: +++ (≥60.1 = +++)

## O=C(c1ccc(-c2cc(-c3ccnc(O[C@@H]4CO[C@H]5[C@@H]4OC[C@H]5O)c3)cs2)c(Cl)c1)N1CCC(O)CC1 [Compound I-1629106, (3-chloro-4-(4-(2-(((3R,3aR,6R,6aR)-6-hydroxyhexahydrofuro [3,2-b]furan-3-yl)oxy)pyridin-4-yl)thiophen-2-yl)phenyl)(4-hydroxypiperidin-1-yl)methanone]
[1]
  percent remaining after 60 min in mouse liver microsomes: +++ (≥60.1 = +++)
SREBP; Homo sapiens
  EC50: < 249 nM
[2]
  percent remaining after 60 min in human liver microsomes: +++ (≥60.1 = +++)

## O=C(c1ccc(-c2cc(-c3ccnc(OC4CC(CO)C4)c3)cs2)c(Cl)c1)N1CCC(O)CC1 (centres unmarked) [Compound I-1629110, (3-chloro-4-(4-(2-(3-(hydroxymethyl)cyclobutoxy)pyridin-4-yl)thiophen-2-yl)phenyl)(4-hydroxypiperidin-1-yl)methanone]
[1]
  percent remaining after 60 min in mouse liver microsomes: +++ (≥60.1 = +++)
SREBP; Homo sapiens
  EC50: < 249 nM
[2]
  percent remaining after 60 min in human liver microsomes: +++ (≥60.1 = +++)

## O=C(c1ccc(-c2cc(-c3ccnc(OCC4CC(O)C4)c3)cs2)c(Cl)c1)N1CCC(O)CC1 (centres unmarked) [Compound I-1629118, (3-chloro-4-(4-(2-((3-hydroxycyclobutyl)methoxy)pyridin-4-yl)thiophen-2-yl)phenyl)(4-hydroxypiperidin-1-yl)methanone]
[1]
  percent remaining after 60 min in mouse liver microsomes: +++ (≥60.1 = +++)
SREBP; Homo sapiens
  EC50: < 249 nM
[2]
  percent remaining after 60 min in human liver microsomes: +++ (≥60.1 = +++)

## O=C(c1ccc(-c2cc(-c3ccnc(C4(CO)CC4)c3)cs2)c(Cl)c1)N1CC[C@H](O)[C@@H](F)C1 [Compound I-1629121, (3-chloro-4-(4-(2-(l-(hydroxymethyl)cyclopropyl)pyridin-4-yl)thiophen-2-yl)phenyl)((3S,4S)-3-fluoro-4-hydroxypiperidin-1-yl)methanone]
[1]
  percent remaining after 60 min in mouse liver microsomes: +++ (≥60.1 = +++)
SREBP; Homo sapiens
  EC50: < 249 nM

## CC(C)[C@H](N)C(=O)OC1CCN(C(=O)c2ccc(-c3cc(-c4ccnc(C5(CO)CC5)c4)cs3)c(Cl)c2)CC1 [Compound I-1629122, 1-(3-chloro-4-(4-(2-(1-(hydroxymethyl)cyclopropyl)pyridin-4-yl)thiophen-2-yl)benzoyl)piperidin-4-yl L-valinate]
SREBP; Homo sapiens
  EC50: < 249 nM

## CC(C)[C@H](N)C(=O)OCC1(c2cc(-c3csc(-c4ccc(C(=O)N5CCC(O)CC5)cc4Cl)c3)ccn2)CC1 [Compound I-1629123, (l-(4-(5-(2-chloro-4-(4-hydroxypiperidine-1-carbonyl)phenyl)thiophen-3-yl)pyridin-2-yl)cyclopropyl)methyl L-valinate]
SREBP
  EC50: < 249 nM

## O=C(c1ccc(-c2cc(-c3ccnc(OC4CC(O)C4)c3)cs2)c(Cl)c1)N1CCC(O)CC1 (centres unmarked) [Compound I-1629124, (3-chloro-4-(4-(2-(3-hydroxycyclobutoxy)pyridin-4-yl)thiophen-2-yl)phenyl)(4-hydroxypiperidin-1-yl)methanone]
[1]
  percent remaining after 60 min in mouse liver microsomes: +++ (≥60.1 = +++)
SREBP; Homo sapiens
  EC50: < 249 nM
